# Laboratory results taken from patent publication US12371454B2, “Cyclic peptide compound having Kras inhibitory action” (priority 2019, dated 2025).
# Starred links: 1 amine or outer side, 2 acyl side, 3 side chain; linkers in the order of their positions; H or OH if unused. Positions of bridges follow the written chain, without caps; N, C: chain ends. Non-standard residues stand in square brackets, D forms with d. Residues, ends and D or L forms follow the SMILES beside them. *: point of attachment. hPhe(3,5-F2-4-CF3) = N[C@@H](CCc1cc(F)c(C(F)(F)F)c(F)c1)C(=O)O; hPhe(3-Cl-4-CF3) = N[C@@H](CCc1ccc(C(F)(F)F)c(Cl)c1)C(=O)O; hPhe(3-F,4-CF3) = N[C@@H](CCc1ccc(C(F)(F)F)c(F)c1)C(=O)O; NEtPhe(4-CF3) = CCN[C@@H](Cc1ccc(C(F)(F)F)cc1)C(=O)O; NMePhe(4-CF3) = CN[C@@H](Cc1ccc(C(F)(F)F)cc1)C(=O)O; hPhe(4-CF3) = N[C@@H](CCc1ccc(C(F)(F)F)cc1)C(=O)O; NMeAla(4-thiazolyl) = CN[C@@H](Cc1cscn1)C(=O)O; NMePhe(4-Cl) = CN[C@@H](Cc1ccc(Cl)cc1)C(=O)O; NMePhe(4-Me) = CN[C@@H](Cc1ccc(C)cc1)C(=O)O; NMePhe(3-F) = CN[C@@H](Cc1cccc(F)c1)C(=O)O; hPhe(4-Cl) = N[C@@H](CCc1ccc(Cl)cc1)C(=O)O; NMedβ3hAla = C[C@H](CC(=O)[*:2])N(C)[*:1]; NMeGly(cPent) = CN[C@H](C(=O)O)C1CCCC1; Pro(4,4-F2) = O=C(O)[C@@H]1CC(F)(F)CN1; NMeCha = CN[C@@H](CC1CCCCC1)C(=O)O; NMeGly(cPr) = CN[C@H](C(=O)O)C1CC1; NMeF = CN[C@@H](Cc1ccccc1)C(=O)O; NMeI = CC[C@H](C)[C@H](NC)C(=O)O; N(CH2CH2)2CF2 = FC1(F)CCN(*)CC1; NMeD = CN[C@@H](CC(=O)O)C(=O)O; NMeL = CN[C@@H](CC(C)C)C(=O)O; NMeV = CN[C@H](C(=O)O)C(C)C; d(β3hA) = C[C@@H](N)CC(=O)O; NMeS = CN[C@@H](CO)C(=O)O; Pip = O=C(O)[C@@H]1CCCCN1; dPip = O=C(O)[C@H]1CCCCN1; NMeA = CN[C@@H](C)C(=O)O; Piperidide = C1CCN(*)CC1; dNMeA = CN[C@H](C)C(=O)O; Ac5c = NC1(C(=O)O)CCCC1; Aze = O=C(O)[C@@H]1CCN1; Ac4c = NC1(C(=O)O)CCC1; Sar = CNCC(=O)O
# Target: T1, Kras and SOS1 (biotin-tagged human Kras loaded with GDP, His-tagged human SOS1) (Homo sapiens, UniProt P01116, G12D)
# T1 construct: made in house; host or cells: E. coli (stated for Kras only)
# T1 sequence (P01116 1-188 isoform P01116-2 G12D): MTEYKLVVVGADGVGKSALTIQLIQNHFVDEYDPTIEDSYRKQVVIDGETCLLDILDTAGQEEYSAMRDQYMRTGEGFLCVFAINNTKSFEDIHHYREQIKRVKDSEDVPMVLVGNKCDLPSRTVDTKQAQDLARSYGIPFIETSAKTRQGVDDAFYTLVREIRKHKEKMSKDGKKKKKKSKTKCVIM
# Test: Protein-protein interaction inhibition between Kras and SOS1 (KrasGl2D-SOS PPI) using AlphaScreen
# Assay type: binding
# Conditions: AlphaScreen; biotin-tagged human Kras loaded with GDP, His-tagged human SOS1; read-out: KRAS G12D-SOS PPI IC50
# Method in brief: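 Kras was produced in E. coli, purified, then loaded with GDP. It was paired via streptavidin acceptor beads with His-SOS1 held on nickel donor beads, and proximity signal at 520-620 nm was read after 680 nm illumination.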
row,Compound,IC50
1,CC[C@H](C)[C@@H]1NC(=O)[C@H](C)N(C)C(=O)C[C@@H](C(=O)N2CCCCC2)N(C)C(=O)[C@H](C(C)C)N(C)C(=O)[C@H](CC(C)C)NC(=O)[C@H](CC(=O)N2CCC(F)(F)CC2)N(C)C(=O)[C@H](CCc2ccc(C(F)(F)F)c(Cl)c2)NC(=O)CN(C)C(=O)[C@H](CC2CCCCC2)N(C)C(=O)CN(C)C(=O)CN(C)C1=O [Compound 826] ([NMeA]I[Sar][Sar][NMeCha][Sar][hPhe(3-Cl-4-CF3)][NMeD](N(CH2CH2)2CF2)L[NMeV][NMeD]-Piperidide; lactam N-11),0.11 µM
2,CC[C@H](C)[C@@H]1NC(=O)[C@H](C)N(C)C(=O)C[C@@H](C)NC(=O)[C@H](C2CCCC2)N(C)C(=O)C2(CCCC2)NC(=O)[C@@H]2CCCN2C(=O)[C@H](CCc2ccc(C(F)(F)F)c(Cl)c2)NC(=O)[C@@H](C)N(C)C(=O)[C@H](Cc2cccc(F)c2)N(C)C(=O)CN(C)C(=O)CN(C)C1=O [Compound 830] (cyclo([Ac5c][NMeGly(cPent)][d(β3hA)][NMeA]I[Sar][Sar][NMePhe(3-F)][dNMeA][hPhe(3-Cl-4-CF3)]P)),0.28 µM
3,CC[C@H](C)[C@@H]1NC(=O)[C@H](C)N(C)C(=O)C[C@@H](C)NC(=O)[C@H](C(C)C)N(C)C(=O)C2(CCCC2)NC(=O)[C@@H]2CCCN2C(=O)[C@H](CCc2ccc(C(F)(F)F)c(Cl)c2)NC(=O)[C@@H](C)N(C)C(=O)[C@H](CC2CCCCC2)N(C)C(=O)[C@@H]2CCN2C(=O)[C@H](C)N(C)C1=O [Compound 831] (cyclo([Ac5c][NMeV][d(β3hA)][NMeA]I[NMeA][Aze][NMeCha][dNMeA][hPhe(3-Cl-4-CF3)]P)),0.18 µM
4,"CC[C@H](C)[C@@H]1NC(=O)[C@H](CC(C)C)N(C)C(=O)C[C@@H](C)N(C)C(=O)[C@H]([C@@H](C)CC)N(C)C(=O)C2(CCC2)NC(=O)[C@@H]2CC(F)(F)CN2C(=O)[C@H](CCc2ccc(C(F)(F)F)c(Cl)c2)NC(=O)CN(C)C(=O)[C@H](Cc2ccc(C(F)(F)F)cc2)N(CC)C(=O)[C@@H]2CCN2C(=O)[C@H](C)N(C)C1=O [Compound 833] (cyclo([Ac4c][NMeI][NMedβ3hAla][NMeL]I[NMeA][Aze][NEtPhe(4-CF3)][Sar][hPhe(3-Cl-4-CF3)][Pro(4,4-F2)]))",0.0091 µM
5,CC[C@H](C)[C@@H]1NC(=O)[C@H](C)N(C)C(=O)C[C@@H](C)NC(=O)[C@H](C(C)C)N(C)C(=O)C2(CCCC2)NC(=O)[C@@H]2CCCN2C(=O)[C@H](CCc2ccc(C(F)(F)F)c(Cl)c2)NC(=O)[C@H]2CCCCN2C(=O)[C@H](CC2CCCCC2)N(C)C(=O)[C@@H]2CCCN2C(=O)CN(C)C1=O [Compound 834] (cyclo([Ac5c][NMeV][d(β3hA)][NMeA]I[Sar]P[NMeCha][dPip][hPhe(3-Cl-4-CF3)]P)),0.057 µM
6,CC[C@H](C)[C@@H]1NC(=O)[C@@H]2CCCCN2C(=O)C[C@@H](C(=O)N2CCCCC2)N(C)C(=O)[C@H](C(C)C)N(C)C(=O)C2(CCCC2)NC(=O)[C@@H]2CCCN2C(=O)[C@H](CCc2ccc(Cl)cc2)NC(=O)CN(C)C(=O)[C@H](CC2CCCCC2)N(C)C(=O)CN(C)C(=O)CN(C)C1=O [Compound 841] ([Pip]I[Sar][Sar][NMeCha][Sar][hPhe(4-Cl)]P[Ac5c][NMeV][NMeD]-Piperidide; lactam N-11),0.024 µM
7,CC[C@H](C)[C@@H]1NC(=O)[C@H](C2CC2)N(C)C(=O)C[C@@H](C)NC(=O)[C@H](C(C)C)N(C)C(=O)C2(CCCC2)NC(=O)[C@@H]2CCCN2C(=O)[C@H](CCc2ccc(C(F)(F)F)c(Cl)c2)NC(=O)CN(C)C(=O)[C@H](CC2CCCCC2)N(C)C(=O)CN(C)C(=O)CN(C)C1=O [Compound 844] (cyclo([Ac5c][NMeV][d(β3hA)][NMeGly(cPr)]I[Sar][Sar][NMeCha][Sar][hPhe(3-Cl-4-CF3)]P)),0.028 µM
8,CC[C@H](C)[C@@H]1NC(=O)[C@@H]2CCCCN2C(=O)C[C@@H](C)NC(=O)[C@H](CC(C)C)N(C)C(=O)C2(CCCC2)NC(=O)[C@H](CC(C)C)N(C)C(=O)[C@H](CCc2ccc(C(F)(F)F)cc2)NC(=O)CN(C)C(=O)[C@H](Cc2ccc(Cl)cc2)N(C)C(=O)CN(C)C(=O)CN(C)C1=O [Compound 847] (cyclo([Ac5c][NMeL][d(β3hA)][Pip]I[Sar][Sar][NMePhe(4-Cl)][Sar][hPhe(4-CF3)][NMeL])),0.054 µM
9,CC[C@H](C)[C@@H]1NC(=O)[C@H](CC(C)C)N(C)C(=O)C[C@@H](C(=O)N2CCCCC2)N(C)C(=O)[C@H](COC)N(C)C(=O)C2(CCCC2)NC(=O)[C@@H]2CCCN2C(=O)[C@H](CCc2ccc(C(F)(F)F)c(Cl)c2)NC(=O)CN(C)C(=O)[C@H](CC2CCCCC2)N(C)C(=O)CN(C)C(=O)CN(C)C1=O [Compound 850] ([NMeL]I[Sar][Sar][NMeCha][Sar][hPhe(3-Cl-4-CF3)]P[Ac5c][NMeS](Me)[NMeD]-Piperidide; lactam N-11),0.024 µM
10,"CC[C@H](C)[C@@H]1NC(=O)[C@H](C(C)C)N(C)C(=O)C[C@@H](C)NC(=O)[C@H](CC(C)C)N(C)C(=O)C2(CCCC2)NC(=O)[C@H](CC(C)C)N(C)C(=O)[C@H](CCc2ccc(C(F)(F)F)c(F)c2)NC(=O)CN(C)C(=O)[C@H](Cc2ccc(Cl)cc2)N(C)C(=O)CN(C)C(=O)CN(C)C1=O [Compound 851] (cyclo([Ac5c][NMeL][d(β3hA)][NMeV]I[Sar][Sar][NMePhe(4-Cl)][Sar][hPhe(3-F,4-CF3)][NMeL]))",0.027 µM
11,CC[C@H](C)[C@@H]1NC(=O)[C@H](CC(C)C)N(C)C(=O)C[C@@H](C(=O)N(C)C)N(C)C(=O)[C@H]([C@@H](C)CC)N(C)C(=O)[C@H](C)NC(=O)[C@H](Cc2cscn2)N(C)C(=O)[C@H](CCc2ccc(C(F)(F)F)c(Cl)c2)NC(=O)CN(C)C(=O)[C@H](Cc2ccc(C)cc2)N(C)C(=O)[C@@H]2CCN2C(=O)[C@H](C)N(C)C1=O [Compound 856] ([NMeL]I[NMeA][Aze][NMePhe(4-Me)][Sar][hPhe(3-Cl-4-CF3)][NMeAla(4-thiazolyl)]A[NMeI][NMeD]-NMe2; lactam N-11),0.014 µM
12,CC[C@H](C)[C@@H]1NC(=O)[C@H](C2CCCC2)N(C)C(=O)C[C@@H](C)NC(=O)[C@H](C(C)C)N(C)C(=O)C2(CCCC2)NC(=O)[C@@H]2CCCN2C(=O)[C@H](CCc2ccc(C(F)(F)F)c(Cl)c2)NC(=O)CN(C)C(=O)[C@H](CC2CCCCC2)N(C)C(=O)CN(C)C(=O)CN(C)C1=O [Compound 857] (cyclo([Ac5c][NMeV][d(β3hA)][NMeGly(cPent)]I[Sar][Sar][NMeCha][Sar][hPhe(3-Cl-4-CF3)]P)),0.017 µM
13,CC[C@H](C)[C@@H]1NC(=O)[C@H](C)N(C)C(=O)C[C@@H](C(=O)N2CCCCC2)NC(=O)[C@H](CC(C)C)N(C)C(=O)[C@H](Cc2ccccc2)N(C)C(=O)[C@H](CC(C)C)NC(=O)[C@H](CCc2ccc(C(F)(F)F)c(Cl)c2)NC(=O)CN(C)C(=O)[C@H](Cc2ccc(Cl)cc2)N(C)C(=O)CN(C)C(=O)CN(C)C1=O [Compound 861] ([NMeA]I[Sar][Sar][NMePhe(4-Cl)][Sar][hPhe(3-Cl-4-CF3)]L[NMeF][NMeL]D-Piperidide; lactam N-11),0.0045 µM
14,"CC[C@H](C)[C@@H]1NC(=O)[C@H](CC(C)C)N(C)C(=O)C[C@@H](C)N(C)C(=O)[C@H]([C@@H](C)CC)N(C)C(=O)C2(CCCC2)NC(=O)[C@@H]2CC(F)(F)CN2C(=O)[C@H](CCc2cc(F)c(C(F)(F)F)c(F)c2)NC(=O)CN(C)C(=O)[C@H](Cc2ccc(C(F)(F)F)cc2)N(C)C(=O)[C@@H]2CCN2C(=O)[C@H](C)N(C)C1=O [Compound 863] (cyclo([Ac5c][NMeI][NMedβ3hAla][NMeL]I[NMeA][Aze][NMePhe(4-CF3)][Sar][hPhe(3,5-F2-4-CF3)][Pro(4,4-F2)]))",0.0025 µM
